Measured values reported in patent US20190365675A1, “COMPOSITIONS FOR THE PREVENTION AND/OR TREATMENT OF ALCOHOL USE DISORDERS” (SERVICIO ANDALUZ DE SALUD, priority 2016, published 2019).

Key:
IκBα = IκBα mRNA and protein in frontal cortex cytosol extracts after ethanol intoxication; assay type: in vivo, Wistar rats; conditions: OEA pre-treatment
Protocol: The animals were treated with intragastric (i.g.) ethanol 3 times a day using an i.g. cannula (16G needle, Fisher Scientific, Waltham, Mass., USA), following a protocol based on a slightly modified standard 4-day alcohol intoxication pattern (Bernier et al., 2002a, b) (FIG. 1A). The ethanol doses were administered every 8 h for a total time of 4 days. The rats treated with ethanol received an initial loading dose of 5 g/kg of ethanol in a 30% solution (w/v) and then a maximum maintenance dose of 3 g/kg, which were determined based on blood ethanol levels (BEL). This repeated standard alcohol intoxication paradigm kept BEL intoxication relatively constant in a range of sedation/ataxia (190 to 430 mg/dl, Table 3), according to the 6-point alcohol intoxication behavior scale (Majchrowicz, 1975). The mean dose of ethanol/rat/day (days 1-4) was 7.06 g/kg, similar to other studies (Obernier et al., 2002a, b). […] The autoradiograph was quantified by densitometry (NIH ImageJ® software, National Biosciences, Lincoln, Nebr. USA) and expressed as optical density (OD). […] The quantitative changes in mRNA levels were estimated by means of RT-PCR, carried out in the presence of the SYBR green primer using a 20-L reaction in a Rotor-Gene (Corbett Research®, Mortlake, NSW, Australia). […]

4-hydroxynonenal (4-HNE) = experiment: Lipid peroxidation (HNE adduct ELISA) in frontal cortex after ethanol intoxication; assay type: in vivo, Wistar rats; conditions: significant only in animals treated with ethanol, OEA pre-treatment
Protocol: The animals were treated with intragastric (i.g.) ethanol 3 times a day using an i.g. cannula (16G needle, Fisher Scientific, Waltham, Mass., USA), following a protocol based on a slightly modified standard 4-day alcohol intoxication pattern (Bernier et al., 2002a, b) (FIG. 1A). The ethanol doses were administered every 8 h for a total time of 4 days. The rats treated with ethanol received an initial loading dose of 5 g/kg of ethanol in a 30% solution (w/v) and then a maximum maintenance dose of 3 g/kg, which were determined based on blood ethanol levels (BEL). This repeated standard alcohol intoxication paradigm kept BEL intoxication relatively constant in a range of sedation/ataxia (190 to 430 mg/dl, Table 3), according to the 6-point alcohol intoxication behavior scale (Majchrowicz, 1975). The mean dose of ethanol/rat/day (days 1-4) was 7.06 g/kg, similar to other studies (Obernier et al., 2002a, b). OEA (5 mg/kg, i.p., except initial dose of 10 mg/kg i.p.; synthesized as described in Giuffrida et al., 2000) was dissolved in the vehicle (5% Tween-80 in saline solution) and injected 10 minutes before each of the administrations of ethanol by an intragastric gavage. […] The levels of HNE protein adducts in cerebral cortex lysates were measured using an OxiSelect™ HNE adduct competitive ELISA 96-well kit (Cell Biolabs®, San Diego, Calif., USA).

SMILES: CCCCCCCC/C=C\CCCCCCCC(=O)NCCO [OEA, oleoylethanolamide]
- Ethanol-induced IκBα protein expression (IκBα; frontal cortex cytosol extracts): did not counteract
- Ethanol-induced increase in IκBα mRNA levels (IκBα; frontal cortex): did not counteract
- Formation of HNE (lipid peroxidation) (4-hydroxynonenal (4-HNE)): reduced
